From patent US9416141B2 (University of Washington through its Center for …, priority 2012, dated 2016)
Where a name gives a salt, the structure may show the parent alone. Read-outs that look alike come from different tables or passages of the source.

Test system: hair cells
Test: Hair cell toxicity assay in zebrafish (neomycin-induced hair cell death, DASPEI staining of neuromasts)
Assay type: in vivo
Settings: for Emax at 25 µM: maximum observed @ 25 μM test compound; for EC50: zebrafish larvae 5-7 dpf, 1 h pre-treatment, then 200 micromolar neomycin + test compound 30 min, read-out: HC50 (concentration that would produce 50% hair cell survival); for Emax at 2.8 µM: maximum observed @ 2.8 μM test compound; for Emax at 8.3 µM: maximum observed @ 8.3 μM test compound
Description: Zebrafish are bred and newly fertilized embryos are collected the week prior and raised at 28.5° C. in petri dishes containing embryo medium. Newly hatched free-swimming larvae are fed paramecium and dry fish food at 4 days post fertilization (dpf) with lights on. For treatment, fish 5-7 dpf are transferred to cell culture baskets and place within a well of a 6-well plate containing 7 milliliters of 1× embryo medium. Typically, tests are done with ten fish per basket but work well with up to 50 fish. All treatment and wash volumes are 7 milliliters. • 1. Fish are pre-treated with test compound for 1 hour. […] Treat with 200 micromolar neomycin (neomycin sulfate, Sigma, St. Louis, Mo., catalog #N1142)+test compound for 30 minutes. • 3. Rinse fish briefly 4 times in embryo medium and add 700 μl of 0.05% DASPEI (2-{4-(dimethylamino)styryl}-N-ethylpyridinium iodide, Molecular Probes, Eugene, Oreg.) and allowed to stain for 15 minutes. • 4. Rinse twice in embryo medium and add 350 μl MS222 (0.55 ug/ml final concentration, 3-aminobenzoic acid ethyl ester, methansulfoneate salt, Sigma, St. Louis, Mo.) to anesthetize. • 5. View with epifluorescence dissecting microscope equipped with a DAPSEI filter set (excitation […], Chroma Technologies, Brattleboro, Vt.). For assessment of initial dose response curves, fish are transferred to wide depression slide with wide-bore pipette. The DASPEI staining of ten neuromasts (SO1, SO2, IO1, IO2, IO3, IO4, M2, MI1, MI2 and O2) on one side of an animal are evaluated. Each neuromast is scored for presence of DASPEI staining (score=2), reduced DASPEI staining (score=1) or absence of DASPEI staining (score=0). Total scores for an animal are tabulated, to give a composite score that can range from 0 to 20. Average scores and standard deviations are calculated for animals in each treatment group. Scores are normalized to control group (vehicle only, no drug, no neomycin) and expressed as % hair cell survival. HCmax is the maximum protection (hair cell survival) observed. • 6. If at least 50% hair cells survive, the HC50 (concentration that would produce 50% hair cell survival) is calculated as a linear extrapolation from the nearest concentrations of protective drug that produce hair cell survival below and above 50%. If less than 50% hair cells survive, the HC50 is not determined. 1× embryo media (standard lab EM): • 1 mM MgSO4, • 0.15 mM KH2PO4, • 0.05 mM Na2HPO4, • 1 mM CaCl2, • 0.5 mM KCl • 15 mM NaCl • 0.7 mM NaHCO3

[1] = Danio rerio, 200 micromolar neomycin, read-out: Max HC Protection (HCmax, % hair cell survival)

## CC(C)(C)CN1CCc2c(sc(NC(=O)Nc3ccc(Cl)cc3)c2C(N)=O)C1 [Example 27, 2-[3-(4-Chlorophenyl)ureido]-6-neopentyl-4,5,6,7-tetrahydrothieno[2,3-c]pyridine-3-carboxamide hydrochloride]
[1]
  Emax at 25 µM: 79%
Danio rerio
  EC50: 1 to 10 µM

## CCN1C2CCC1c1sc(NC(=O)Nc3ccc(Cl)cc3)c(C(N)=O)c1C2 (racemic) [Example 133, (+/−)-2-[3-(4-Chlorophenyl)ureido]-9-ethyl-5,6,7,8-tetrahydro-4H-5,8-epiminocyclohepta[b]thiophene-3-carboxamide hydrochloride]
[1]
  Emax at 25 µM: 76%
Danio rerio
  EC50: < 1 µM

## CC[N+]1(C)CCc2c(sc(NC(=O)N(C)c3ccc(Cl)cc3)c2C(N)=O)C1 (stereo not shown) [Example 185, 3-Carbamoyl-2-[3-(4-chlorophenyl)-3-methylureido]-6-ethyl-6-methyl-4,5,6,7-tetrahydrothieno[2,3-c]pyridin-6-ium chloride]
[1]
  Emax at 2.8 µM: 16%

## CC(C)(C)OC(=O)C[N+]1(C)CCc2c(sc(NC(=O)Nc3ccc(Cl)cc3)c2C(N)=O)C1 (stereo not shown) [Example 147, 6-(2-tert-Butoxy-2-oxoethyl)-3-carbamoyl-2-[3-(4-chlorophenyl)ureido]-6-methyl-4,5,6,7-tetrahydrothieno[2,3-c]pyridin-6-ium iodide]
[1]
  Emax at 2.8 µM: 90%
Danio rerio
  EC50: < 1 µM

## CC(C)CN1CCc2c(sc(NC(=O)Nc3ccc4ccccc4c3)c2C(N)=O)C1 [Example 34, 6-Isobutyl-2-[3-(naphthalen-2-yl)ureido]-4,5,6,7-tetrahydrothieno[2,3-c]pyridine-3-carboxamide hydrochloride]
[1]
  Emax at 25 µM: 87%
Danio rerio
  EC50: 1 to 10 µM

## NC(=O)c1c(NC(=O)Nc2ccc(Cl)cc2)sc2c1CCN(CC13CC4CC(CC(C4)C1)C3)C2 [Example 49, 6-[(3r,5r,7r)-Adamantan-1-ylmethyl]-2-[3-(4-chlorophenyl)ureido]-4,5,6,7-tetrahydrothieno[2,3-c]pyridine-3-carboxamide hydrochloride]
[1]
  Emax at 2.8 µM: 64%
Danio rerio
  EC50: 1 to 10 µM

## CC[N+]1(CCCC(=O)OC(C)(C)C)CCc2c(sc(NC(=O)Nc3ccc(Cl)cc3)c2C(N)=O)C1 (stereo not shown) [Example 198, 6-[4-(tert-Butoxy)-4-oxobutyl]-3-carbamoyl-2-[3-(4-chlorophenyl)ureido]-6-ethyl-4,5,6,7-tetrahydrothieno[2,3-c]pyridin-6-ium trifluoroacetate]
[1]
  Emax at 2.8 µM: 89%
Danio rerio
  EC50: < 1 µM

## CCN1CCc2c(sc(NC(=O)Nc3ccc(CC(=O)O)cc3)c2C(N)=O)C1 [Example 33, 2-{4-[3-(3-Carbamoyl-6-ethyl-4,5,6,7-tetrahydrothieno[2,3-c]pyridin-2-yl)ureido]phenyl}acetic acid trifluoroacetate]
Danio rerio, maximum observed @ 0.93 μM test compound, 200 micromolar neomycin, read-out: Max HC Protection (HCmax, % hair cell survival)
  Emax at 0.93 µM: 9%

## CCN1CCc2c(sc(NC(=O)Nc3ccc(Cl)cc3)c2C(=O)NC2COC2)C1 [Example 102, 2-[3-(4-Chlorophenyl)ureido]-6-ethyl-N-(oxetan-3-yl)-4,5,6,7-tetrahydrothieno[2,3-c]pyridine-3-carboxamide]
[1]
  Emax at 25 µM: 22%

## CC(C)(C)OC(=O)CCCC[N+]1(C)CCc2c(sc(NC(=O)Nc3ccc(Cl)cc3)c2C(N)=O)C1 (stereo not shown) [Example 155, 6-(5-tert-Butoxy-5-oxopentyl)-3-carbamoyl-2-[3-(4-chlorophenyl)ureido]-6-methyl-4,5,6,7-tetrahydrothieno[2,3-c]pyridin-6-ium iodide]
[1]
  Emax at 2.8 µM: 75%
Danio rerio
  EC50: < 1 µM

## CCN1CCc2c(sc(NC(=O)Nc3ccc4c(c3)CCCC4)c2C(N)=O)C1 [Example 227, 6-ethyl-2-{[(5,6,7,8-tetrahydronaphthalen-2-yl)carbamoyl]amino}-4H,5H,6H,7H-thieno[2,3-c]pyridine-3-carboxamide]
[1]
  Emax at 25 µM: 80%
Danio rerio
  EC50: 1 to 10 µM

## CCN1CCc2c(sc(NC(=O)Nc3ccc4c(c3)OC(F)(F)O4)c2C(N)=O)C1 [Example 85, 2-[3-(2,2-Difluorobenzo[d][1,3]dioxol-5-yl)ureido]-6-ethyl-4,5,6,7-tetrahydrothieno[2,3-c]pyridine-3-carboxamide hydrochloride]
[1]
  Emax at 25 µM: 63%
Danio rerio
  EC50: 1 to 10 µM

## CC(C)CN1CCc2c(sc(NC(=O)Nc3ccc(Cl)cc3)c2C(N)=O)C1 [Example 26, 2-[3-(4-Chlorophenyl)ureido]-6-isobutyl-4,5,6,7-tetrahydrothieno[2,3-c]pyridine-3-carboxamide hydrochloride]
[1]
  Emax at 8.3 µM: 68%
Danio rerio
  EC50: 1 to 10 µM

## C[N+]1(CCCC(N)=O)CCc2c(sc(NC(=O)Nc3ccc(Cl)cc3)c2C(N)=O)C1 (stereo not shown) [Example 167, 6-(4-Amino-4-oxobutyl)-3-carbamoyl-2-[3-(4-chlorophenyl)ureido]-6-methyl-4,5,6,7-tetrahydrothieno[2,3-c]pyridin-6-ium trifluoroacetate]
[1]
  Emax at 2.8 µM: 21%

## C[N+](C)(C)C1CCc2c(sc(NC(=O)Nc3ccc(Cl)cc3)c2C(N)=O)C1 (stereo not shown) [Example 169, 3-Carbamoyl-2-[3-(4-chlorophenyl)ureido]-N,N,N-trimethyl-4,5,6,7-tetrahydrobenzo[b]thiophen-6-aminium iodide]
[1]
  Emax at 25 µM: 101%
Danio rerio
  EC50: 1 to 10 µM

## CCN1CCc2c(sc(NC(N)=O)c2C(N)=O)C1 [Example 107, 6-ethyl-2-ureido-4,5,6,7-tetrahydrothieno[2,3-c]pyridine-3-carboxamide hydrochloride]
[1]
  Emax at 2.8 µM: 36%

## CCN1CCc2c(sc(NC(=O)Nc3ccc(Cl)cc3)c2C(=O)N2CCOCC2)C1 [Example 95, 1-(4-chlorophenyl)-3-[6-ethyl-3-(morpholine-4-carbonyl)-4,5,6,7-tetrahydrothieno[2,3-c]pyridin-2-yl]urea hydrochloride]
[1]
  Emax at 25 µM: 78%
Danio rerio
  EC50: 1 to 10 µM

## CCN1CCc2c(sc(NC(=O)Nc3cn(C)c4ccccc34)c2C(N)=O)C1 [Example 82, 6-Ethyl-2-[3-(1-methyl-1H-indol-3-yl)ureido]-4,5,6,7-tetrahydrothieno[2,3-c]pyridine-3-carboxamide hydrochloride]
[1]
  Emax at 25 µM: 23%

## C#CCCC(=O)NCCCN1CCc2c(sc(NC(=O)Nc3ccc(Cl)cc3)c2C(N)=O)C1 [Example 216, 2-{[(4-chlorophenyl)carbamoyl]amino}-6-[3-(pent-4-ynamido)propyl]-4H,5H,6H,7H-thieno[2,3-c]pyridine-3-carboxamide]
[1]
  Emax at 25 µM: 97%
Danio rerio
  EC50: 1 to 10 µM

## CCN1CCc2c(sc(NC(=O)Nc3cnc4ccccc4c3)c2C(N)=O)C1 [Example 78, 6-Ethyl-2-[3-(quinolin-3-yl)ureido]-4,5,6,7-tetrahydrothieno[2,3-c]pyridine-3-carboxamide dihydrochloride]
[1]
  Emax at 25 µM: 52%
Danio rerio
  EC50: > 10 µM

## CCN1CCc2c(sc(NC(=O)Nc3cncc4ccccc34)c2C(N)=O)C1 [Example 81, 6-Ethyl-2-[3-(isoquinolin-4-yl)ureido]-4,5,6,7-tetrahydrothieno[2,3-c]pyridine-3-carboxamide dihydrochloride]
[1]
  Emax at 8.3 µM: 32%

## CC(C)(C)OC(=O)C1CC([N+]2(C)CCc3c(sc(NC(=O)Nc4ccc(Cl)cc4)c3C(N)=O)C2)C1 (stereo not shown) [Example 163, 6-[3-(tert-Butoxycarbonyl)cyclobutyl]-3-carbamoyl-2-[3-(4-chlorophenyl)ureido]-6-methyl-4,5,6,7-tetrahydrothieno[2,3-c]pyridin-6-ium iodide]
[1]
  Emax at 8.3 µM: 88%
Danio rerio
  EC50: < 1 µM

## NC(=O)c1c(NC(=O)Nc2ccc(Cl)cc2)sc2c1CC1CCC2N1 (racemic) [Example 124, (+/−)-2-[3-(4-chlorophenyl)ureido]-5,6,7,8-tetrahydro-4H-5,8-epiminocyclohepta[b]thiophene-3-carboxamide hydrochloride]
  EC50: < 1 µM

## NCCN1CCc2c(sc(NC(=O)Nc3ccc(Cl)cc3)c2C(N)=O)C1 [Example 11, 6-(2-Aminoethyl)-2-[3-(4-chlorophenyl)ureido]-4,5,6,7-tetrahydrothieno[2,3-c]pyridine-3-carboxamide dihydrochloride]
[1]
  Emax at 25 µM: 68%
Danio rerio
  EC50: 1 to 10 µM
